Laboratory results from ChEMBL document CHEMBL1201862, “PubChem BioAssay data set” (2004).
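Grown in 96-well plates, cells were treated for 48 hours with each compound at five concentrations. Insufficient inhibition: endpoint recorded as highest concentration tested. GI50 = concentration required for 50% inhibition of growth.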 Activity calls are given as the source filed them. No stated cut-off is given here; in the data, active = GI50 up to about 1.1 µM and inactive = higher.

Experiments:
Experiment in all cases: NCI-60 cell line screen, 48 h
SR = tested on: SR
EKVX = tested on: EKVX
LOX IMVI = tested on: LOX IMVI
NCI-H226 = tested on: NCI-H226
LXFL 529 = tested on: LXFL 529
MOLT-4 = tested on: MOLT-4
COLO 205 = tested on: COLO 205
SK-MEL-5 = tested on: SK-MEL-5
A549 = tested on: A549
SF-268 = tested on: SF-268
TK-10 = tested on: TK-10
DMS-114 = tested on: DMS-114
DLD-1 = tested on: DLD-1
DU-145 = tested on: DU-145

Measured: GI50

Cc1cccc(C(C)C)c1NC(=O)C(=O)CC(=O)c1c(C)[n+]([O-])c2ccccc2[n+]1[O-]
inactive: SR 28.2 µM | EKVX 30.7 µM | LOX IMVI 23 µM | NCI-H226 > 100 µM | LXFL 529 34 µM | MOLT-4 21.5 µM | COLO 205 33.1 µM | SK-MEL-5 34 µM | A549 36.7 µM | SF-268 30.1 µM | TK-10 > 100 µM | DMS-114 16.5 µM

COc1cc(/C=C2\NC(=O)C(Cc3cc(OC)c(OC)c(C)c3OC)N(C(C)=O)C2=O)c(OC)c(C)c1OC (configuration not stated)
inactive: SR > 100 µM | EKVX 43.7 µM | LOX IMVI > 100 µM | NCI-H226 59.2 µM | LXFL 529 72.8 µM | DLD-1 > 100 µM | MOLT-4 33.3 µM | COLO 205 54.7 µM | SK-MEL-5 42.9 µM | A549 > 100 µM | SF-268 > 100 µM | TK-10 > 100 µM | DMS-114 60.5 µM

Cc1cc2c(=O)cc(-c3ccc(F)cc3)oc2c(C(=O)O)c1C
inactive: EKVX > 100 µM | LOX IMVI > 100 µM | NCI-H226 > 100 µM | LXFL 529 > 100 µM | DLD-1 > 100 µM | MOLT-4 > 100 µM | COLO 205 > 100 µM | SK-MEL-5 > 100 µM | A549 > 100 µM | SF-268 > 100 µM | TK-10 > 100 µM | DMS-114 > 100 µM

COC(=O)C1CC(C(=O)OC)c2nc3cc([N+](=O)[O-])ccc3nc21 (configuration not stated)
inactive: EKVX > 81.3 µM | LOX IMVI 22.3 µM | NCI-H226 > 100 µM | LXFL 529 36.9 µM | DLD-1 31 µM | MOLT-4 19.4 µM | COLO 205 49.1 µM | SK-MEL-5 58.7 µM | A549 43.1 µM | SF-268 26.4 µM | TK-10 > 100 µM | DMS-114 16.3 µM

CC1(C)C(=NN=C(N)N)C(C)(C)C1=NN=C(N)N
inactive: SR > 100 µM | LOX IMVI > 100 µM | NCI-H226 > 100 µM | LXFL 529 > 100 µM | DLD-1 > 100 µM | MOLT-4 > 100 µM | COLO 205 > 100 µM | SK-MEL-5 > 100 µM | A549 > 100 µM | SF-268 > 100 µM | TK-10 > 100 µM | DMS-114 > 100 µM

BrC1=CC=C2NC=CC3=CC=NC1C32 (configuration not stated)
inactive: SR 4.57 µM | EKVX 39.5 µM | LOX IMVI 9.55 µM | NCI-H226 14.2 µM | LXFL 529 19.5 µM | DLD-1 19 µM | MOLT-4 2.75 µM | COLO 205 21.6 µM | SK-MEL-5 20 µM | SF-268 15.5 µM | TK-10 34.1 µM | DMS-114 14 µM

COc1ccc2c3c1C(=O)CCC3CO2 (configuration not stated)
inactive: EKVX 91 µM | LOX IMVI > 100 µM | LXFL 529 > 100 µM | DLD-1 > 100 µM | MOLT-4 > 100 µM | COLO 205 > 100 µM | SK-MEL-5 > 100 µM | A549 > 100 µM | SF-268 > 100 µM | TK-10 > 100 µM | DMS-114 > 100 µM

CC1(C)CC2CC(CC(C)(C)C2=O)C1=O
inactive: SR > 100 µM | EKVX > 100 µM | LOX IMVI > 100 µM | LXFL 529 > 100 µM | DLD-1 > 100 µM | MOLT-4 > 100 µM | COLO 205 > 100 µM | SK-MEL-5 > 100 µM | A549 > 100 µM | SF-268 > 100 µM | TK-10 > 100 µM | DMS-114 > 100 µM

CCO/C=C1\N=C(C(Cl)c2ccccc2)OC1=O (configuration not stated)
inactive: EKVX > 100 µM | LOX IMVI > 100 µM | NCI-H226 > 100 µM | LXFL 529 > 100 µM | DLD-1 > 100 µM | MOLT-4 > 100 µM | COLO 205 > 100 µM | SK-MEL-5 > 100 µM | A549 > 100 µM | SF-268 > 100 µM | TK-10 > 100 µM | DMS-114 61.5 µM

COC(OC)c1cccc2c1C1(O)CCC3(CC21)OCCCCO3 (configuration not stated)
inactive: SR > 100 µM | LOX IMVI > 100 µM | NCI-H226 > 100 µM | LXFL 529 > 100 µM | DLD-1 > 100 µM | MOLT-4 > 100 µM | COLO 205 > 100 µM | SK-MEL-5 > 100 µM | A549 > 100 µM | SF-268 > 100 µM | TK-10 > 100 µM | DMS-114 > 100 µM

O=C(c1ccccc1)N1CCc2c([nH]c3ccccc23)C1
inactive: SR 33.1 µM | EKVX 44.6 µM | LOX IMVI 88.1 µM | NCI-H226 51.8 µM | LXFL 529 36.4 µM | DLD-1 64.7 µM | MOLT-4 24.5 µM | COLO 205 19.2 µM | SK-MEL-5 20.9 µM | A549 50.4 µM | TK-10 44.3 µM | DMS-114 20.4 µM

C=C(CN(C)C)C(=O)c1ccc(C(=O)C(=C)CN(C)C)cc1
inactive: SR > 100 µM | EKVX > 100 µM | LOX IMVI > 100 µM | NCI-H226 > 100 µM | LXFL 529 > 100 µM | DLD-1 > 100 µM | MOLT-4 > 100 µM | COLO 205 > 100 µM | SK-MEL-5 > 100 µM | A549 35.2 µM | SF-268 > 100 µM | TK-10 > 100 µM | DU-145 > 100 µM

O=C(O)CCNS(=O)(=O)c1ccc([N+](=O)[O-])cc1
inactive: EKVX > 100 µM | LOX IMVI > 100 µM | NCI-H226 > 100 µM | LXFL 529 > 100 µM | DLD-1 > 100 µM | MOLT-4 > 100 µM | COLO 205 > 100 µM | SK-MEL-5 > 100 µM | A549 > 100 µM | SF-268 > 100 µM | TK-10 > 100 µM

CC(=O)Oc1cc2c(=O)oc3c(OC(C)=O)c(OC(C)=O)c(OC(C)=O)c4c(=O)oc(c1OC(C)=O)c2c34
inactive: SR 24.8 µM | EKVX 74 µM | LOX IMVI 15.6 µM | NCI-H226 43.9 µM | LXFL 529 > 100 µM | DLD-1 > 100 µM | MOLT-4 58.7 µM | COLO 205 59 µM | SK-MEL-5 61.1 µM | A549 > 100 µM | SF-268 48.4 µM | TK-10 > 100 µM | DMS-114 21.6 µM

O=C1N(c2ccccc2)C(=O)C2(SC=NN2Cc2ccccc2)N1c1ccccc1 (configuration not stated)
inactive: SR 92.7 µM | EKVX > 100 µM | LOX IMVI > 100 µM | NCI-H226 > 100 µM | LXFL 529 > 100 µM | DLD-1 > 100 µM | MOLT-4 > 100 µM | COLO 205 > 100 µM | SK-MEL-5 > 100 µM | A549 > 100 µM | SF-268 > 100 µM | TK-10 > 100 µM | DMS-114 > 100 µM

Cc1ccc(S(=O)(=O)c2c3nc4ccccc4nc3n3c2[nH]c2ccccc23)cc1
inactive: SR > 100 µM | EKVX > 100 µM | LOX IMVI > 100 µM | LXFL 529 > 100 µM | DLD-1 > 100 µM | MOLT-4 > 100 µM | COLO 205 > 100 µM | SK-MEL-5 > 100 µM | A549 > 100 µM | SF-268 > 100 µM | TK-10 > 100 µM | DMS-114 > 100 µM

CCOc1cccc2ccc[n+](CC)c12
inactive: EKVX > 100 µM | LOX IMVI 91.6 µM | NCI-H226 > 100 µM | LXFL 529 54.7 µM | DLD-1 > 100 µM | MOLT-4 > 100 µM | COLO 205 40.8 µM | SK-MEL-5 45.5 µM | A549 48.6 µM | SF-268 12.2 µM | TK-10 > 100 µM | DMS-114 32.7 µM

O=C(O)CSc1nnc(Cc2ccccc2)[nH]1
inactive: SR > 100 µM | EKVX > 100 µM | LOX IMVI > 100 µM | NCI-H226 > 100 µM | LXFL 529 > 100 µM | DLD-1 > 100 µM | MOLT-4 > 100 µM | SK-MEL-5 > 100 µM | A549 > 100 µM | SF-268 > 100 µM | TK-10 > 100 µM | DMS-114 > 100 µM

COc1cc2c(oc(=O)c3c4occc4cc(OC)c23)c2cccc(O)c12
inactive: EKVX > 100 µM | LOX IMVI > 100 µM | NCI-H226 > 100 µM | LXFL 529 > 100 µM | DLD-1 > 100 µM | MOLT-4 > 100 µM | COLO 205 > 100 µM | SK-MEL-5 > 100 µM | A549 > 100 µM | SF-268 > 100 µM | TK-10 > 100 µM | DMS-114 > 100 µM

CC(C)NC1CCCCC2c3cc(F)ccc3[C@]12O (some centres not stated)
inactive: EKVX > 100 µM | LOX IMVI > 100 µM | NCI-H226 > 100 µM | LXFL 529 > 100 µM | DLD-1 > 100 µM | MOLT-4 > 100 µM | COLO 205 > 100 µM | SK-MEL-5 > 100 µM | A549 > 100 µM | SF-268 > 100 µM | TK-10 > 100 µM | DMS-114 > 100 µM

Cn1cnc([N+](=O)[O-])c1SC1=NCCS1
inactive: SR 24.5 µM | EKVX > 100 µM | LOX IMVI 17.3 µM | NCI-H226 > 100 µM | LXFL 529 27 µM | DLD-1 31.4 µM | MOLT-4 25.6 µM | COLO 205 70 µM | SK-MEL-5 > 100 µM | A549 > 100 µM | SF-268 > 100 µM | TK-10 > 100 µM

CC#C[I+]c1ccccc1
inactive: SR 15.1 µM | EKVX 16.2 µM | LOX IMVI 13.8 µM | NCI-H226 33 µM | LXFL 529 13.4 µM | DLD-1 14.3 µM | MOLT-4 12.1 µM | COLO 205 12.9 µM | SK-MEL-5 23.4 µM | A549 63.8 µM | SF-268 19.1 µM | TK-10 16.4 µM | DMS-114 13.2 µM
